doi:10.1101/2021.12.13.472376v1 (bioRxiv, 2021)

Experiments:
[1] = Water solubility / dissolution of the peptide; type: physicochemical
[2] = system: GBM; conditions: GBM patients treated with radiotherapy combined with TMZ; ref Stupp et al., 2005; cited from earlier work

Molecule | water solubility [1] | dissolution of 1 mg peptide in 1000 μL 10% DMSO DPBS ([1]; 1 mg in 1000 μL 10% DMSO DPBS, only a mixture with loose precipitation obtained) | median survival [2] | dissolution of 1 mg peptide in 200 μL normal saline or DPBS ([1]; 1 mg in 200 μL normal saline or DPBS)
RQIKIWFQNRRMKWGGTALDWSWLQTE [NBD] | poor | could not completely dissolve | – | –
Cn1nnc2c(C(N)=O)ncn2c1=O [TMZ] | – | – | 14.6 months | –
YLGASVPSPDPLEPTGGTALDWSWLQTE [MTL-NBD] | good | – | – | completely dissolve
